According to BigSolDB 2.1:

CCCCCCCCCCCCCCCCCCCCCC(=O)OCCO
Conditions	solubility (mole fraction)
in 1,1,1-trichloroethane, 287.55 K	0.0101
in 1,1,1-trichloroethane, 290.15 K	0.0146
in 1,1,1-trichloroethane, 293.65 K	0.0202
in 1,1,1-trichloroethane, 296.95 K	0.0313
in 1,1,1-trichloroethane, 299.45 K	0.043
in 1,1,1-trichloroethane, 302.35 K	0.0571
in 1,1,1-trichloroethane, 304.35 K	0.0718
in 1,1,1-trichloroethane, 305.75 K	0.0958
in 1,1,1-trichloroethane, 308.95 K	0.127
in 1,1,1-trichloroethane, 311.75 K	0.161
in 1,1,1-trichloroethane, 318.15 K	0.259
in cyclohexane, 295.95 K	0.0024
in cyclohexane, 300.05 K	0.0037
in cyclohexane, 304.75 K	0.0102
in cyclohexane, 307.15 K	0.0204
in cyclohexane, 308.95 K	0.041
in cyclohexane, 311.05 K	0.0766
in cyclohexane, 312.65 K	0.108
in ethanol, 296.35 K	0.0001
in ethanol, 302.05 K	0.0002
in ethanol, 305.35 K	0.0003
in ethanol, 311.65 K	0.0007
in ethanol, 313.05 K	0.0009
in ethanol, 322.45 K	0.0131
in isobutanol, 295.75 K	0.0001
in isobutanol, 300.35 K	0.0004
in isobutanol, 304.45 K	0.0018
in isobutanol, 304.55 K	0.0016
in isobutanol, 308.45 K	0.003
in isobutanol, 311.55 K	0.0082
in isopropanol, 305.15 K	0.0003
in isopropanol, 306.65 K	0.0006
in isopropanol, 313.15 K	0.0008
in isopropanol, 315.65 K	0.0015
in isopropanol, 319.65 K	0.0033
in isopropanol, 321.65 K	0.0058
in isopropanol, 325.65 K	0.0069
in isopropanol, 326.65 K	0.0241
in n-butanol, 295.85 K	0.0004
in n-butanol, 299.75 K	0.0006
in n-butanol, 304.25 K	0.001
in n-butanol, 307.25 K	0.0018
in n-butanol, 309.25 K	0.0036
in n-propanol, 296.55 K	0.0002
in n-propanol, 299.15 K	0.0003
in n-propanol, 302.85 K	0.0007
in n-propanol, 303.15 K	0.0008
in n-propanol, 306.05 K	0.0016
in n-propanol, 308.85 K	0.0033
in tetrachloroethylene, 297.25 K	0.0002
in tetrachloroethylene, 298.45 K	0.0003
in tetrachloroethylene, 301.95 K	0.0005
in tetrachloroethylene, 303.25 K	0.0008
in tetrachloroethylene, 309.75 K	0.0028
in trichloroethylene, 296.25 K	0.0089
in trichloroethylene, 301.35 K	0.0177
in trichloroethylene, 306.45 K	0.0406
in trichloroethylene, 310.85 K	0.0804
in trichloroethylene, 311.25 K	0.252

CCCCCCCCCCCCCCCCCCCC(=O)OCCO
Conditions	solubility (mole fraction)
in 1,1,1-trichloroethane, 296.75 K	0.0241
in 1,1,1-trichloroethane, 299.75 K	0.0469
in 1,1,1-trichloroethane, 303.75 K	0.0762
in 1,1,1-trichloroethane, 309.55 K	0.142
in MIBK, 294.65 K	0.0026
in MIBK, 298.05 K	0.0049
in MIBK, 299.25 K	0.008
in MIBK, 302.65 K	0.0176
in MIBK, 307.55 K	0.0486
in MIBK, 311.75 K	0.173
in cyclohexane, 296.35 K	0.003
in cyclohexane, 298.75 K	0.0044
in cyclohexane, 301.55 K	0.008
in cyclohexane, 303.25 K	0.0189
in cyclohexane, 305.65 K	0.0367
in cyclohexane, 307.25 K	0.069
in cyclohexane, 310.55 K	0.122
in ethanol, 311.25 K	0.0006
in ethanol, 314.65 K	0.0012
in ethanol, 319.15 K	0.002
in ethanol, 322.15 K	0.005
in ethanol, 324.15 K	0.0139
in isopropanol, 302.85 K	0.0002
in isopropanol, 304.05 K	0.0005
in isopropanol, 306.35 K	0.0008
in isopropanol, 309.85 K	0.001
in isopropanol, 310.65 K	0.0017
in isopropanol, 310.95 K	0.0026
in isopropanol, 313.15 K	0.0028
in isopropanol, 316.15 K	0.0062
in isopropanol, 318.15 K	0.0134
in isopropanol, 319.85 K	0.082
in isopropanol, 319.95 K	0.193
in n-butanol, 303.75 K	0.0006
in n-butanol, 303.95 K	0.001
in n-butanol, 306.55 K	0.0018
in n-butanol, 306.75 K	0.0019
in n-butanol, 307.95 K	0.0027
in n-butanol, 308.85 K	0.0039
in n-butanol, 310.85 K	0.0059
in n-butanol, 313.75 K	0.0122
in n-butanol, 315.75 K	0.0201
in n-butanol, 317.35 K	0.0783
in n-butanol, 317.45 K	0.151
in n-butyl acetate, 294.75 K	0.0036
in n-butyl acetate, 296.55 K	0.0065
in n-butyl acetate, 297.45 K	0.009
in n-butyl acetate, 299.85 K	0.0127
in n-butyl acetate, 301.05 K	0.0184
in n-butyl acetate, 303.45 K	0.0288
in n-butyl acetate, 307.35 K	0.0655
in n-butyl acetate, 312.35 K	0.147
in n-butyl acetate, 312.85 K	0.172
in n-butyl acetate, 313.35 K	0.185
in trichloroethylene, 297 K	0.0428
in trichloroethylene, 299.25 K	0.0575
in trichloroethylene, 304.25 K	0.104
in trichloroethylene, 307.7 K	0.15
in trichloroethylene, 311.3 K	0.216

CCCCCCCCCCCCCCCCCC(=O)OCCO
Conditions	solubility (mole fraction)
in 1,1,1-trichloroethane, 287.65 K	0.0097
in 1,1,1-trichloroethane, 290.45 K	0.0147
in 1,1,1-trichloroethane, 293.65 K	0.0227
in 1,1,1-trichloroethane, 295.75 K	0.0339
in 1,1,1-trichloroethane, 298.55 K	0.0504
in 1,1,1-trichloroethane, 300.95 K	0.0723
in 1,1,1-trichloroethane, 304.25 K	0.108
in 1,1,1-trichloroethane, 307.75 K	0.164
in 1,1,1-trichloroethane, 311.65 K	0.239
in 1,1,1-trichloroethane, 314.45 K	0.348
in 1,1,2-trichlorotrifluoroethane, 290.45 K	0.0013
in 1,1,2-trichlorotrifluoroethane, 295.55 K	0.0029
in 1,1,2-trichlorotrifluoroethane, 303.45 K	0.0077
in 1,1,2-trichlorotrifluoroethane, 303.65 K	0.0087
in 1,1,2-trichlorotrifluoroethane, 306.05 K	0.0124
in 1,1,2-trichlorotrifluoroethane, 308.05 K	0.0192
in 1,1,2-trichlorotrifluoroethane, 309.85 K	0.0307
in 1,1,2-trichlorotrifluoroethane, 311.45 K	0.049
in 1,1,2-trichlorotrifluoroethane, 312.65 K	0.0769
in 1,1,2-trichlorotrifluoroethane, 314.15 K	0.128
in 1,1,2-trichlorotrifluoroethane, 316.75 K	0.276
in cyclohexane, 282.05 K	0.0007
in cyclohexane, 288.35 K	0.0015
in cyclohexane, 294.65 K	0.0033
in cyclohexane, 298.15 K	0.0067
in cyclohexane, 299.15 K	0.0088
in cyclohexane, 300.25 K	0.0128
in cyclohexane, 300.85 K	0.0135
in cyclohexane, 302.25 K	0.0199
in cyclohexane, 303.85 K	0.314
in cyclohexane, 305.45 K	0.0499
in cyclohexane, 307.15 K	0.0774
in cyclohexane, 309.35 K	0.129
in cyclohexane, 312.46 K	0.208
in cyclohexane, 315.56 K	0.303
in ethyl acetate, 297.45 K	0.0118
in ethyl acetate, 298.35 K	0.016
in ethyl acetate, 299.15 K	0.0204
in ethyl acetate, 299.75 K	0.0248
in ethyl acetate, 300.95 K	0.0332
in ethyl acetate, 302.15 K	0.0433
in ethyl acetate, 305.05 K	0.065
in ethyl acetate, 306.05 K	0.0868
in ethyl acetate, 308.75 K	0.125
in ethyl acetate, 312.75 K	0.233
in n-butyl acetate, 294.45 K	0.0094
in n-butyl acetate, 295.35 K	0.0174
in n-butyl acetate, 297.45 K	0.0304
in n-butyl acetate, 298.65 K	0.0507
in n-butyl acetate, 302.65 K	0.0761
in n-butyl acetate, 306.75 K	0.129
in n-butyl acetate, 313.15 K	0.267
in n-hexyl acetate, 293.95 K	0.0267
in n-hexyl acetate, 299.35 K	0.0423
in n-hexyl acetate, 302.35 K	0.0633
in n-hexyl acetate, 305.95 K	0.0919
in n-hexyl acetate, 308.15 K	0.128
in n-hexyl acetate, 309.75 K	0.158
in n-hexyl acetate, 311.65 K	0.202
in n-hexyl acetate, 313.73 K	0.256
in n-hexyl acetate, 317.15 K	0.339
in n-hexyl acetate, 320.05 K	0.464
in n-hexyl acetate, 332.85 K	0.631
in n-pentyl acetate, 294.95 K	0.0324
in n-pentyl acetate, 298.95 K	0.0453
in n-pentyl acetate, 300.85 K	0.168
in n-pentyl acetate, 301.75 K	0.0655
in n-pentyl acetate, 303.75 K	0.0897
in n-pentyl acetate, 305.75 K	0.121
in n-pentyl acetate, 311.95 K	0.232
in n-pentyl acetate, 314.95 K	0.316
in n-pentyl acetate, 318.45 K	0.447
in n-pentyl acetate, 322.85 K	0.657
in n-propyl acetate, 297.75 K	0.0357
in n-propyl acetate, 299.95 K	0.0493
in n-propyl acetate, 302.15 K	0.0655
in n-propyl acetate, 304.35 K	0.0992
in n-propyl acetate, 306.45 K	0.137
in n-propyl acetate, 308.75 K	0.174
in n-propyl acetate, 311.85 K	0.228
in n-propyl acetate, 314.95 K	0.315
in n-propyl acetate, 317.85 K	0.405
in n-propyl acetate, 322.15 K	0.566
